# Measured values from patent publication US9987242B2, “Treatment of Levodopa-induced Dyskinesias” (NORTHWESTERN UNIVERSITY, priority 2015, dated 2018).
# “Also recorded” adds a separate entry of the source.
# Tests used:
# Format in all cases: cell-based, mice
# [1] = tested on: NMDAR-mediated Ca2+ transients in dSPN spines; assay: NMDAR-mediated Ca2+ transients in dSPN spines, two-photon glutamate uncaging and Fluo-5F imaging
# Description: dSPNs were identified by somatic tdTomato expression using two-photon excited fluorescence that was induced and detected using a Prairie Ultima laser scanning microscope system (Prairie Technologies). Fluorescent and bright-field images were viewed in register using a Dodt contrast detector system. Cells were patched using video microscopy with a Hitachi CCD camera and an Olympus 60×/1.0 NA lens. Green (Fluo 5F) and red (tdTomato; Alexa 568) signals were acquired using 810 nm excitation (Verdi/Mira laser). Following patch rupture the internal solution was allowed to equilibrate for 10-15 minutes before imaging. High magnification z-series of dendrite regions 50-100 μm from the soma were acquired with 0.072 μm2 pixels with 4 μs dwell time and 0.3 μm z-steps. […]
# dSPNs were loaded with 25 μM Alexa 568 and 300 μM Fluo 5F via the internal recording solution, containing (in mM): 120 CsMeSO3, 5 NaCl, 10 TEA-Cl, 10 HEPES, 5 QX-314, 4 ATP-Mg and 0.3 GTP-Na. […] Changes in Fluo 5F fluorescence were averaged from 3 trials and measured as ΔF/Fo.
# Glutamate uncaging was achieved using a Verdi/Mira (Coherent Laser Group, Santa Clara, Calif.) (Plotkin et al., 2014). […] Photolysis power was tuned via a third Pockels cell modulator (Con Optics, Danbury, Conn.) to achieve uEPSCs≤5 pA. uEPSC amplitudes were measured from averaged (3-5 repetitions) traces. […]
# [2] = tested on: NMDAR-mediated currents in dSPNs; assay: NMDAR-mediated uEPSCs and EPSCs in dSPNs, whole-cell voltage clamp; details: for amplitude of NMDAR-mediated uEPSCs: muscarine and VU10010 5 μM in the presence of SKF81297, glutamate uncaging
# Experimental: For whole-cell voltage clamp recordings, patch pipettes were loaded with internal recording solution containing (mM): 120 CsMeSO3, 15 CsCl, 8 NaCl, 10 HEPES, 0.2 EGTA, 10 tetraethylammonium Chloride (TEA-Cl), 5 QX-314, 2 Mg-ATP, 0.3 Na-GTP; pH was adjusted to 7.25 with CsOH and osmolarity to ˜305 mOsm l^−1. All the recordings were made using a MultiClamp 700 A amplifier, and signals were filtered at 2 kHz and digitized at 10 kHz. Data were excluded when the series resistance changed >20% over the time course of the experiment. For perforated patch recordings, the internal recording solution comprised (in mM): 125 KMeSO4, 14 KCl, 2 MgCl2, 0.2 EGTA, 10 HEPES; pH was adjusted to 7.25 with NaOH and osmolarity to ˜280 mOsm l^−1. Amphotericin B was used to achieve electrical access through the perforated-patch method (Shen et al., 2007; 2008; herein incorporated by reference in their entireties). Capacitance current was continuously monitored during perforation by applying a 5-10 mV pulse from a holding potential of −70 mV. The amplifier bridge circuit was adjusted to compensate for series resistance and continuously monitored during recordings. Electrode capacitance was also compensated. Data were excluded when the input resistance (Ri) changed >20% over the time course of the experiment.
# Glutamate uncaging was achieved using a Verdi/Mira (Coherent Laser Group, Santa Clara, Calif.) (Plotkin et al., 2014). 5 mM MNI-glutamate was superfused over the slice at 0.4 ml/hr using a syring pump and multi-barreled perfusion manifold (Cell MicroControls, Norfolk, Va.). The perfusion solution was (in mM): 124 NaCl, 3 KCl, 2 CaCl2, 1 NaH2PO4, 26 HEPES and 16.66 glucose, and also contained (in μM): 3 muscarine, 10 serine, 10 NBQX and 10 gabazine, plus or minus: 3 SKF81297 and/or 5 VU10010). Glutamate was uncaged adjacent to individual spines using 1 ms pulses of 720-725 nm light typically 10-20 mW in power at the sample plane. Photolysis power was tuned via a third Pockels cell modulator (Con Optics, Danbury, Conn.) to achieve uEPSCs≤5 pA. uEPSC amplitudes were measured from averaged (3-5 repetitions) traces. All uncaging experiments were performed in 0 mM Mg^2+-containing solutions.
# To determine the situation in dSPNs, the effect of muscarine and VU10010 on NMDAR-mediated EPSCs evoked by uncaging glutamate on spine heads (uEPSCs) was examined in the presence of SKF81297.
# [3] = tested on: dSPN glutamatergic synapses; assay: Spike-timing-dependent LTP induction (pre-post pairing) in dSPNs, ex vivo slices; details: VU10010 5 μM
# [4] = tested on: dSPN glutamatergic synapses; assay: Depotentiation of established LTP by low-frequency stimulation (2 Hz, 10 min) in dSPNs; details: VU10010 5 μM
compound,measurement,setting,value
Cc1cc(C)c2c(N)c(C(=O)NCc3ccc(Cl)cc3)sc2n1 [VU10010],decrease of NMDAR-mediated Ca2+ transients,"[1]; SKF81297 3 μM, then muscarine and the M4R PAM co-applied, n=12",~40%
same,NMDAR-mediated Ca2+ transients,"[1]; VU10010 5 μM, dSPNs from LID mice",reduced NMDAR-mediated Ca2+ transients
same,muscarine modulation of NMDAR-mediated EPSCs,"[2]; muscarine 3 μM + VU10010 5 μM, local electrical stimulation",augmented
same,amplitude of NMDAR-mediated uEPSCs,[2],significantly reduced the amplitude
same,amplitude of NMDAR-mediated uEPSCs,[2]; listed as VU 10010,suppressed NMDAR-mediated uEPSC currents
same,STDP LTP induction in dSPNs,[3]; dyskinetic (LID) mice,blocked the induction of STDP LTP; also recorded: LTP was disrupted
same,STDP LTP induction in dSPNs,[3]; naive mice,disrupted STDP LTP induction; also recorded: LTP induction was also blocked
same,depotentiation by LFS in dSPNs,"[4]; dyskinetic (LID) mice, no D1R antagonist",restored depotentiation
same,depotentiation by LFS in dSPNs,[4]; naive mice,Depotentiation also was achieved; also recorded: promoted the reversal of established LTP
